Laboratory results taken from US20100016574A1, “2'-Hydroxyl Group-Modified Ribonucleoside Derivatives” (Tokyo Institute of Technology, priority 2006, published 2010).

Assay: Stability / elimination of the 2′-modifying group with tetrabutylammonium fluoride (TLC analysis)
Type: physicochemical
Settings: room temperature
Protocol: To the compound (4 mg, 0.01 mmol) synthesized in Example 8 were added 1M tetrabutylammonium fluoride/THF (1 mL), and the reaction was carried out at room temperature for 6 days. […] The compound was thus stable.
To the compound (4 mg, 0.01 mmol) synthesized in Example 5 was added 1 M tetrabutylammonium fluoride/THF (1 mL) for a reaction at room temperature for 10 minutes.
To the compound (6 mg, 0.01 mmol) synthesized in Example 16 was added 1 M tetrabutylammonium fluoride/THF (1 mL), followed by a reaction at room temperature for 2 hours.

COC(=O)CCO[C@@H]1[C@H](O)[C@@H](CO)O[C@H]1n1ccc(=O)[nH]c1=O [Example 5, 2′-O-[2-(Methoxycarbonyl)ethyl]uridine]
Elimination of 2-methoxycarbonyl group with tetrabutylammonium fluoride (1 M tetrabutylammonium fluoride/THF, 10 minutes): Complete conversion to uridine

CNC(=O)CCO[C@@H]1[C@H](O)[C@@H](COC(c2ccccc2)(c2ccc(OC)cc2)c2ccc(OC)cc2)O[C@H]1n1ccc(=O)[nH]c1=O [Example 8, 5′-O-(4,4′-Dimethoxytrityl)-2′-O-[2-(N-methylcarbamoyl)ethyl]uridine]
Stability of 2-(N-methylcarbamoyl)ethyl group to tetrabutylammonium fluoride (1M tetrabutylammonium fluoride/THF, 6 days): No degradation was observed

COc1ccc(C(OC[C@H]2O[C@@H](n3ccc(=O)[nH]c3=O)[C@H](OCCC(=O)N(C)C)[C@@H]2O)(c2ccccc2)c2ccc(OC)cc2)cc1 [Example 16, 5′-O-(4,4′-Dimethoxytrityl)-2′-O-[2-(N,N-dimethylcarbamoyl)ethyl]uridine]
Elimination of 2-(N,N-dimethylcarbamoylethyl) group with tetrabutylammonium fluoride (1 M tetrabutylammonium fluoride/THF, 2 hours): Complete conversion to 5′-O-dimethoxytrityl uridine
